Where a name gives a salt, the structure may show the parent alone.
Target: T1, human GlyT1c transporter (Homo sapiens, UniProt P48067)
T1 construct: expressed in transfected cells; host or cells: CHO cells (recombinant; membranes)
T1 sequence (P48067 1-706): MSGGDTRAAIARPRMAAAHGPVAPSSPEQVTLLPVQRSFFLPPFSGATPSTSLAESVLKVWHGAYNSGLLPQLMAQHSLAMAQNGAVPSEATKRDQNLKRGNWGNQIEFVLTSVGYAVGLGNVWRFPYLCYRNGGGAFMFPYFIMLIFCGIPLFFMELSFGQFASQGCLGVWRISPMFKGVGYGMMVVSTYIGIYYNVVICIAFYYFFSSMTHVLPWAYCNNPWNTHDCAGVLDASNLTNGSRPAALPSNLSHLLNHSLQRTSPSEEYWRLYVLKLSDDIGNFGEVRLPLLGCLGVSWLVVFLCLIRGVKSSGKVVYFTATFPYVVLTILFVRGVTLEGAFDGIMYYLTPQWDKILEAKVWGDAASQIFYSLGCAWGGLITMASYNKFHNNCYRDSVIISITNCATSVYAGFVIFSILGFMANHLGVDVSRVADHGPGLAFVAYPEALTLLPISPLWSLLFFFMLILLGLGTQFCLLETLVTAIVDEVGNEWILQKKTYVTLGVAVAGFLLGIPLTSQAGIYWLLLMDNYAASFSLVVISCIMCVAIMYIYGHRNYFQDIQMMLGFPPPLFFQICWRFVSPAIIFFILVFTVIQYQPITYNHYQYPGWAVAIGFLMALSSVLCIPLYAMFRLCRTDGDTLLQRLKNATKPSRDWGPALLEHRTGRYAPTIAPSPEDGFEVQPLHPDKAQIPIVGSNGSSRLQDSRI
Assay: Radioligand binding assay using recombinant CHO cell membranes expressing human GlyT1
Conditions: values given as upper bounds, read-out: radioligand binding Kiapp
Experimental: 2. Radioligand Binding Assays Using Recombinant CHO Cell Membranes Expressing Human GlyT1:
Radioligand binding to human GlyT1c transporter-expressing membranes was determined as described in Mezler et al., Molecular Pharmacology 74:1705-1715, 2008.

Question: For `N[C@@H]1COc2ccc(CNS(=O)(=O)C3CCC3)cc2[C@@H]1Cc1ccccc1` (relative stereo) [Example 69, cis-Cyclobutanesulfonic acid (-3-amino-4-benzyl-chroman-6-ylmethyl)-amide], which Ki is on record?
Answer: The Ki was ≤ 100 nM.

Question: `N[C@@H]1COc2ccc(CNS(=O)(=O)C3CCC3)cc2[C@H]1Cc1ccccc1` (relative stereo) [Example 70, trans-Cyclobutanesulfonic acid (-3-amino-4-benzyl-chroman-6-ylmethyl)-amide] was tested. Which Ki did it give?
Answer: The Ki was ≤ 1000 nM.

Question: `CCCS(=O)(=O)NCc1ccc2c(c1)[C@H](Cc1ccccc1)[C@H](N)CO2` (relative stereo) [Example 71, cis-Propane-1-sulfonic acid (-3-amino-4-benzyl-chroman-6-ylmethyl)-amide] was tested. Which Ki did it give?
Answer: Its Ki is ≤ 100 nM.

Question: With `CCCS(=O)(=O)NCc1ccc2c(c1)[C@@H](Cc1ccccc1)[C@H](N)CO2` (relative stereo) [Example 72, trans-Propane-1-sulfonic acid (-3-amino-4-benzyl-chroman-6-ylmethyl)-amide] as the molecule, how does the Ki read?
Answer: The Ki was ≤ 100 nM.

Question: For `CCS(=O)(=O)NCCOc1ccc2c(c1)[C@@H](Cc1ccccc1)[C@H](NC)C(C)(C)O2` (relative stereo) [Example 73, trans-Ethanesulfonic acid [2-(-4-benzyl-2,2-dimethyl-3-methylamino-chroman-6-yloxy)-ethyl]-amide], which Ki is on record?
Answer: Its Ki is ≤ 1000 nM.

Question: With `CCCS(=O)(=O)NCCOc1ccc2c(c1)[C@H](Cc1ccccc1)[C@H](NC)C(C)(C)O2` (relative stereo) [Example 74, cis-Propane-1-sulfonic acid [2-(-4-benzyl-2,2-dimethyl-3-methylamino-chroman-6-yloxy)-ethyl]-amide] as the molecule, how does the Ki read?
Answer: The Ki was ≤ 1000 nM.

Question: How did the Ki turn out when `CCCS(=O)(=O)NCCOc1ccc2c(c1)[C@@H](Cc1ccccc1)[C@H](NC)C(C)(C)O2` (relative stereo) [Example 75, trans-Propane-1-sulfonic acid (2-(-4-benzyl-2,2-dimethyl-3-methylamino-chroman-6-yloxy)-ethyl]-amide] was run?
Answer: The Ki was ≤ 1000 nM.

Question: `CN[C@H]1[C@@H](Cc2ccccc2)c2cc(OCCNS(=O)(=O)CC3CC3)ccc2OC1(C)C` (relative stereo) [Example 76, cis-N-[2-(-4-Benzyl-2,2-dimethyl-3-methylamino-chroman-6-yloxy)-ethyl]-C-cyclopropyl-methanesulfonamide] was tested. Which Ki did it give?
Answer: The Ki was ≤ 1000 nM.

Question: How did the Ki turn out when `CN[C@H]1[C@H](Cc2ccccc2)c2cc(OCCNS(=O)(=O)CC3CC3)ccc2OC1(C)C` (relative stereo) [Example 77, trans-N-[2-(-4-Benzyl-2,2-dimethyl-3-methylamino-chroman-6-yloxy)-ethyl]-C-cyclopropyl-methanesulfonamide] was run?
Answer: Its Ki is ≤ 1000 nM.

Question: Which Ki does the source give for `CCS(=O)(=O)NCc1ccc2c(c1)C(Cc1ccccc1)C(NC)CO2` (single isomer, unassigned; isomer 2) [Example 79, cis-N-{[4-Benzyl-3-(methyl-amino)-3,4-dihydro-2H-chromen-6-yl]methy}ethane-sulfonamide. (Isomer 2)] here?
Answer: Its Ki is ≤ 100 nM.

Question: `Cn1cnc(S(=O)(=O)NCCOc2ccc3c(c2)C(Cc2ccccc2)C(N2CCC2)CO3)c1` (single isomer, unassigned; isomer 2) [Example 80, cis-1-Methyl-1H-imidazole-4-sulfonic acid [2-(3-azetidin-1-yl-4-benzyl-chroman-6-yloxy)-ethyl]-amide. (Isomer 2)] was tested. Which Ki did it give?
Answer: Its Ki is ≤ 10 nM.

Question: How did the Ki turn out when `CCS(=O)(=O)NCc1ccc2c(c1)C(Cc1ccccc1)C(N1CCC1)CO2` (stereo not drawn) [Example 19, Ethanesulfonic acid (3-azetidin-1-yl-4-benzyl-chroman-6-ylmethyl)-amide; trifluoro-acetic acid salt] was run?
Answer: The Ki was ≤ 1000 nM.

Question: How did the Ki turn out when `CCCS(=O)(=O)NCc1ccc2c(c1)C(Cc1ccccc1)C(N1CCC1)CO2` (stereo not drawn) [Example 20, Propane-1-sulfonic acid (3-azetidin-1-yl-4-benzyl-chroman-6-ylmethyl)-amide; trifluoro-acetic acid salt] was run?
Answer: The Ki was ≤ 100 nM.

Question: For `O=S(=O)(CC1CC1)NCc1ccc2c(c1)C(Cc1ccccc1)C(N1CCC1)CO2` (stereo not drawn) [Example 21, N-(3-Azetidin-1-yl-4-benzyl-chroman-6-ylmethyl)-C-cyclopropyl-methane-sulfonamide; trifluoro-acetic acid salt], which Ki is on record?
Answer: The Ki was ≤ 100 nM.

Question: `CC1CCCN(S(=O)(=O)NCc2ccc3c(c2)C(Cc2ccccc2)C(N)CO3)C1` (stereo not drawn) [Example 43, 3-Methyl-piperidine-1-sulfonic acid (3-amino-4-benzyl-chroman-6-ylmethyl)-amide 2,2,2-trifluoroacetate] was tested. Which Ki did it give?
Answer: The Ki was ≤ 1000 nM.

Question: For `NC1COc2ccc(CNS(=O)(=O)N3CCOCC3)cc2C1Cc1ccccc1` (stereo not drawn) [Example 44, Morpholine-4-sulfonic acid (3-amino-4-benzyl-chroman-6-ylmethyl)-amide 2,2,2-trifluoroacetate], which Ki is on record?
Answer: The Ki was ≤ 10000 nM.

Question: Which Ki does the source give for `Cc1nn(C)cc1S(=O)(=O)NCc1ccc2c(c1)C(Cc1ccccc1)C(N)CO2` (stereo not drawn) [Example 45, 1,3-Dimethyl-1H-pyrazole-4-sulfonic acid (3-amino-4-benzyl-chroman-6-ylmethyl)-amide 2,2,2-trifluoroacetate] here?
Answer: The Ki was ≤ 10000 nM.

Question: `Cn1ccc(S(=O)(=O)NCc2ccc3c(c2)C(Cc2ccccc2)C(N)CO3)n1` (stereo not drawn) [Example 46, 1-Methyl-1H-pyrazole-3-sulfonic acid (3-amino-4-benzyl-chroman-6-ylmethyl)-amide 2,2,2-trifluoroacetate] was tested. Which Ki did it give?
Answer: Its Ki is ≤ 1000 nM.

Question: Which Ki does the source give for `CCC(C)S(=O)(=O)NCc1ccc2c(c1)C(Cc1ccccc1)C(N)CO2` (stereo not drawn) [Example 47, Butane-2-sulfonic acid (3-amino-4-benzyl-chroman-6-ylmethyl)-amide 2,2,2-trifluoroacetate] here?
Answer: The Ki was ≤ 100 nM.

Question: `CC(C)S(=O)(=O)NCc1ccc2c(c1)C(Cc1ccccc1)C(N)CO2` (stereo not drawn) [Example 48, Propane-2-sulfonic acid (3-amino-4-benzyl-chroman-6-ylmethyl)-amide 2,2,2-trifluoroacetate] was tested. Which Ki did it give?
Answer: The Ki was ≤ 1000 nM.

Question: Which Ki does the source give for `NC1COc2ccc(CNS(=O)(=O)c3ccsc3)cc2C1Cc1ccccc1` (stereo not drawn) [Example 49, Thiophene-3-sulfonic acid (3-amino-4-benzyl-chroman-6-ylmethyl)-amide 2,2,2-trifluoroacetate] here?
Answer: Its Ki is ≤ 1000 nM.

Question: How did the Ki turn out when `Cc1cc(S(=O)(=O)NCc2ccc3c(c2)C(Cc2ccccc2)C(N)CO3)c(C)o1` (stereo not drawn) [Example 50, 2,5-Dimethyl-furan-3-sulfonic acid (3-amino-4-benzyl-chroman-6-ylmethyl)-amide 2,2,2-trifluoroacetate] was run?
Answer: Its Ki is ≤ 100 nM.

Question: How did the Ki turn out when `CC(C)CS(=O)(=O)NCc1ccc2c(c1)C(Cc1ccccc1)C(N)CO2` (stereo not drawn) [Example 51, 2-Methyl-propane-1-sulfonic acid (3-amino-4-benzyl-chroman-6-ylmethyl)-amide 2,2,2-trifluoroacetate] was run?
Answer: Its Ki is ≤ 10000 nM.

Question: `Cc1ccc(S(=O)(=O)NCc2ccc3c(c2)C(Cc2ccccc2)C(N)CO3)o1` (stereo not drawn) [Example 52, 5-Methyl-furan-2-sulfonic acid (3-amino-4-benzyl-chroman-6-ylmethyl)-amide 2,2,2-trifluoroacetate] was tested. Which Ki did it give?
Answer: The Ki was ≤ 1000 nM.

Question: With `Cc1ccc(S(=O)(=O)NCc2ccc3c(c2)C(Cc2ccccc2)C(N)CO3)s1` (stereo not drawn) [Example 53, 5-Methyl-thiophene-2-sulfonic acid (3-amino-4-benzyl-chroman-6-ylmethyl)-amide 2,2,2-trifluoroacetate] as the molecule, how does the Ki read?
Answer: Its Ki is ≤ 1000 nM.

Question: For `NC1COc2ccc(CNS(=O)(=O)c3ccoc3)cc2C1Cc1ccccc1` (stereo not drawn) [Example 54, Furan-3-sulfonic acid (3-amino-4-benzyl-chroman-6-ylmethyl)-amide 2,2,2-trifluoroacetate], which Ki is on record?
Answer: Its Ki is ≤ 100 nM.

Question: With `Cc1cc(S(=O)(=O)NCc2ccc3c(c2)C(Cc2ccccc2)C(N)CO3)n(C)n1` (stereo not drawn) [Example 55, 2,5-Dimethyl-2H-pyrazole-3-sulfonic acid (3-amino-4-benzyl-chroman-6-ylmethyl)-amide 2,2,2-trifluoroacetate] as the molecule, how does the Ki read?
Answer: Its Ki is ≤ 10000 nM.

Question: With `Cc1csc(S(=O)(=O)NCc2ccc3c(c2)C(Cc2ccccc2)C(N)CO3)c1` (stereo not drawn) [Example 56, 4-Methyl-thiophene-2-sulfonic acid (3-amino-4-benzyl-chroman-6-ylmethyl)-amide 2,2,2-trifluoroacetate] as the molecule, how does the Ki read?
Answer: Its Ki is ≤ 100 nM.

Question: Which Ki does the source give for `CCn1cc(S(=O)(=O)NCc2ccc3c(c2)C(Cc2ccccc2)C(N)CO3)cn1` (stereo not drawn) [Example 57, 1-Ethyl-1H-pyrazole-4-sulfonic acid (3-amino-4-benzyl-chroman-6-ylmethyl)-amide 2,2,2-trifluoroacetate] here?
Answer: Its Ki is ≤ 1000 nM.

Question: Which Ki does the source give for `Cc1ncc(S(=O)(=O)NCc2ccc3c(c2)C(Cc2ccccc2)C(N)CO3)n1C` (stereo not drawn) [Example 58, 2,3-Dimethyl-3H-imidazole-4-sulfonic acid (3-amino-4-benzyl-chroman-6-ylmethyl)-amide 2,2,2-trifluoroacetate] here?
Answer: The Ki was ≤ 1000 nM.

Reference: patent US8853196B2, “Aminochromane, aminothiochromane and amino-1,2,3,4-tetrahydroquinoline derivatives, pharmaceutical compositions containing them, and their use in therapy” (AbbVie Deutschland GmbH & Co. KG, priority 2011, dated 2014)
